Literature values, collected in US20030181371A1, “Compositions and methods of using collajolie” (Angiotech Pharmaceuticals, Inc., priority 2001, published 2003).

Key:
[1] = not given; remark: listed apart in the source

Row | SMILES | well tolerated daily dosage [mg] | further results
1 | CNC(=O)[C@@H](NC(=O)[C@H](CC(C)C)[C@H](O)C(=O)NO)C(C)(C)C [Marimistat] |  | established well tolerated single daily dose (single daily dose): 50 mg
2 | CN(C)[C@@H]1C(O)=C(C(N)=O)C(=O)[C@@]2(O)C(O)=C3C(=O)c4c(O)cccc4[C@@](C)(O)C3C[C@@H]12 (stereo in doubt) [tetracycline, 4-(dimethylamino)-1,4,4a,5,5a,6,11,12a-octahydro-3,6,10,12,12a-pentahydroxy-6-methyl-1,11-dioxo-2-naphthacenecarboxamide] | 1000 | 
3 | CNC(=O)[C@H](Cc1ccccc1)NC(=O)[C@H](CC(C)C)[C@H](CSc1cccs1)C(=O)NO [Batimistat] |  | solubility [1]: highly insoluble
4 | C[C@H]1c2cccc(O)c2C(=O)C2=C(O)[C@]3(O)C(=O)C(C(N)=O)=C(O)[C@@H](N(C)C)[C@@H]3[C@@H](O)[C@@H]21 [doxycycline, α-6-deoxy-5-hydroxy-tetracycline] | 100 | 
5 | CN(C)c1ccc(O)c2c1C[C@H]1C[C@H]3[C@H](N(C)C)C(O)=C(C(N)=O)C(=O)[C@@]3(O)C(O)=C1C2=O [minocycline, 7-dimethylamino-6-dimethyl-6-deoxytetracycline] | 200 | 
